Experimental data published in ChEMBL document CHEMBL1201862, “PubChem BioAssay data set” (2004).
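Briefly, cells in 96-well plates were exposed to five compound concentrations for 48 h, and endpoints were estimated by linear interpolation. GI50: concentration for 50% inhibition of growth.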 Calls of active or inactive are those of the source. Rule as the data show it: active = GI50 up to about 1.1 µM and inactive = higher.

Tests used:
Test in all cases: NCI-60 cell line screen, 48 h
786-0 = test system: 786-0
A498 = test system: A498
A549 = test system: A549
ACHN = test system: ACHN
CAKI-1 = test system: CAKI-1
CCRF-CEM = test system: CCRF-CEM
DU-145 = test system: DU-145
EKVX = test system: EKVX
HCC 2998 = test system: HCC 2998
HCT-116 = test system: HCT-116
HCT-15 = test system: HCT-15
HL-60 = test system: HL-60
HOP-62 = test system: HOP-62
HOP-92 = test system: HOP-92
HT-29 = test system: HT-29
Hs-578T = test system: Hs-578T
IGROV-1 = test system: IGROV-1
K562 = test system: K562
LOX IMVI = test system: LOX IMVI
M14 = test system: M14
MCF7 = test system: MCF7
MDA-MB-231 = test system: MDA-MB-231
MDA-MB-435 = test system: MDA-MB-435
MDA-N = test system: MDA-N
MOLT-4 = test system: MOLT-4
Malme-3M = test system: Malme-3M
NCI-H23 = test system: NCI-H23
NCI-H460 = test system: NCI-H460
NCI-H522 = test system: NCI-H522
NCI/ADR-RES = test system: NCI/ADR-RES
OVCAR-3 = test system: OVCAR-3
OVCAR-4 = test system: OVCAR-4
OVCAR-5 = test system: OVCAR-5
OVCAR-8 = test system: OVCAR-8
PC-3 = test system: PC-3
RPMI-8226 = test system: RPMI-8226
RXF 393 = test system: RXF 393
SF-268 = test system: SF-268
SF-295 = test system: SF-295
SF-539 = test system: SF-539
SK-MEL-2 = test system: SK-MEL-2
SK-MEL-5 = test system: SK-MEL-5
SK-OV-3 = test system: SK-OV-3
SNB-19 = test system: SNB-19
SNB-75 = test system: SNB-75
SR = test system: SR
SW-620 = test system: SW-620
T47D = test system: T47D
TK-10 = test system: TK-10
U-251 = test system: U-251
UACC-257 = test system: UACC-257
UO-31 = test system: UO-31
COLO 205 = test system: COLO 205
KM12 = test system: KM12
NCI-H226 = test system: NCI-H226
SK-MEL-28 = test system: SK-MEL-28
SN12C = test system: SN12C
UACC-62 = test system: UACC-62

For `Cc1ccc2c(c1)C(=O)C1(C2)Cc2ccc(C)cc2C1=O`, the GI50 (786-0) was > 100 µM (inactive), the GI50 (A498) was > 100 µM (inactive) and the GI50 (A549) was > 100 µM (inactive). For the same molecule, the GI50 (ACHN) was > 100 µM (inactive), the GI50 (CAKI-1) was > 100 µM (inactive) and the GI50 (CCRF-CEM) was > 100 µM (inactive). The GI50 (DU-145) was > 100 µM (inactive), the GI50 (EKVX) was > 100 µM (inactive) and the GI50 (HCC 2998) was > 100 µM (inactive). The GI50 (HCT-116) was > 100 µM (inactive), the GI50 (HCT-15) was over 100 µM and the GI50 (HL-60) was > 100 µM (inactive). For the same molecule, the GI50 (HOP-62) was > 100 µM (inactive), the GI50 (HOP-92) was > 100 µM (inactive) and the GI50 (HT-29) was > 100 µM (inactive). For the same molecule, the GI50 (Hs-578T) was > 100 µM (inactive), the GI50 (IGROV-1) was > 100 µM (inactive) and the GI50 (K562) was > 100 µM (inactive). For the same molecule, the GI50 (LOX IMVI) was > 100 µM (inactive), the GI50 (M14) was > 100 µM (inactive) and the GI50 (MCF7) was > 100 µM (inactive). For the same molecule, the GI50 (MDA-MB-231) was > 100 µM (inactive), the GI50 (MDA-MB-435) was > 100 µM (inactive) and the GI50 (MDA-N) was > 100 µM (inactive). For the same molecule, the GI50 (MOLT-4) was > 100 µM (inactive), the GI50 (Malme-3M) was > 100 µM (inactive) and the GI50 (NCI-H23) was > 100 µM (inactive). The GI50 (NCI-H460) was > 100 µM (inactive), the GI50 (NCI-H522) was > 100 µM (inactive) and the GI50 (NCI/ADR-RES) was > 100 µM (inactive). The GI50 (OVCAR-3) was > 100 µM (inactive), the GI50 (OVCAR-4) was > 100 µM (inactive) and the GI50 (OVCAR-5) was > 100 µM (inactive). The GI50 (OVCAR-8) was > 100 µM (inactive), the GI50 (PC-3) was > 100 µM (inactive) and the GI50 (RPMI-8226) was > 100 µM (inactive). For the same molecule, the GI50 (RXF 393) was > 100 µM (inactive), the GI50 (SF-268) was > 100 µM (inactive) and the GI50 (SF-295) was > 100 µM (inactive). For the same molecule, the GI50 (SF-539) was > 100 µM (inactive), the GI50 (SK-MEL-2) was 87.3 µM (inactive) and the GI50 (SK-MEL-5) was > 100 µM (inactive). The GI50 (SK-OV-3) was > 100 µM (inactive), the GI50 (SNB-19) was > 100 µM (inactive) and the GI50 (SNB-75) was > 100 µM (inactive). For the same molecule, the GI50 (SR) was > 100 µM (inactive), the GI50 (SW-620) was > 100 µM (inactive) and the GI50 (T47D) was > 100 µM (inactive). For the same molecule, the GI50 (TK-10) was > 100 µM (inactive), the GI50 (U-251) was 71.8 µM (inactive) and the GI50 (UACC-257) was > 100 µM (inactive). For the same molecule, the GI50 (UO-31) was > 100 µM (inactive).
`CCCCCCCCCCCCCCCCCc1nc(Cl)nc(Cl)c1Cl` was tested, and the GI50 (786-0) was > 100 µM (inactive), the GI50 (A549) was > 100 µM (inactive) and the GI50 (ACHN) was > 100 µM (inactive). The GI50 (CAKI-1) was > 100 µM (inactive), the GI50 (CCRF-CEM) was 34.8 µM (inactive) and the GI50 (COLO 205) was > 100 µM (inactive). The GI50 (DU-145) was > 100 µM (inactive), the GI50 (HCC 2998) was > 100 µM (inactive) and the GI50 (HCT-116) was > 100 µM (inactive). For the same molecule, the GI50 (HCT-15) was over 100 µM, the GI50 (HL-60) was > 100 µM (inactive) and the GI50 (HOP-62) was > 100 µM (inactive). The GI50 (HOP-92) was > 100 µM (inactive), the GI50 (HT-29) was > 100 µM (inactive) and the GI50 (Hs-578T) was > 100 µM (inactive). For the same molecule, the GI50 (IGROV-1) was > 100 µM (inactive), the GI50 (K562) was > 100 µM (inactive) and the GI50 (KM12) was > 100 µM (inactive). For the same molecule, the GI50 (LOX IMVI) was > 100 µM (inactive), the GI50 (M14) was > 100 µM (inactive) and the GI50 (MCF7) was > 100 µM (inactive). The GI50 (MDA-MB-231) was > 100 µM (inactive), the GI50 (MDA-MB-435) was > 100 µM (inactive) and the GI50 (MDA-N) was > 100 µM (inactive). The GI50 (MOLT-4) was 76.7 µM (inactive), the GI50 (Malme-3M) was > 100 µM (inactive) and the GI50 (NCI-H226) was 15.6 µM (inactive). The GI50 (NCI-H23) was > 100 µM (inactive), the GI50 (NCI-H460) was > 100 µM (inactive) and the GI50 (NCI-H522) was > 100 µM (inactive). For the same molecule, the GI50 (NCI/ADR-RES) was > 100 µM (inactive), the GI50 (OVCAR-3) was > 100 µM (inactive) and the GI50 (OVCAR-4) was > 100 µM (inactive). For the same molecule, the GI50 (OVCAR-5) was > 100 µM (inactive), the GI50 (OVCAR-8) was > 100 µM (inactive) and the GI50 (PC-3) was 38.1 µM (inactive). The GI50 (RPMI-8226) was 24.4 µM (inactive), the GI50 (RXF 393) was > 100 µM (inactive) and the GI50 (SF-268) was > 100 µM (inactive). For the same molecule, the GI50 (SF-295) was > 100 µM (inactive), the GI50 (SF-539) was > 100 µM (inactive) and the GI50 (SK-MEL-28) was > 100 µM (inactive). The GI50 (SK-MEL-5) was 17.3 µM (inactive), the GI50 (SK-OV-3) was > 100 µM (inactive) and the GI50 (SN12C) was > 100 µM (inactive). The GI50 (SNB-19) was > 100 µM (inactive), the GI50 (SNB-75) was > 100 µM (inactive) and the GI50 (SR) was 52.2 µM (inactive). The GI50 (SW-620) was > 100 µM (inactive), the GI50 (T47D) was > 100 µM (inactive) and the GI50 (TK-10) was > 100 µM (inactive). The GI50 (U-251) was > 100 µM (inactive), the GI50 (UACC-62) was > 100 µM (inactive) and the GI50 (UO-31) was > 100 µM (inactive).
